“And” between values parts separate entries of the source, which are not always exact repeats. Equal values may be shown once. Inconclusive results and toxic doses are left out.
Tested on: L1210 leukemia ip in BDF1 mice, survival T/C
Assay: NCI In Vivo Anticancer Drug Screen. Data for tumor model L1210 Leukemia (intraperitoneal) in B6D2F1 (BDF1) mice
Conditions: endpoint: mean survival time, higher = longer survival
Procedure, shortened: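 Ratio derived from survival: compound-dosed mice over vehicle-dosed mice, all bearing a transplantable tumor.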

[1] = dose: 100.0 mg/kg/injection, schedule: Q01DX009 (ip), vehicle: Klucel (hydroxypropylcellulose) (HPC)
[2] = dose: 100.0 mg/kg/injection, schedule: Q04DX002 (ip), vehicle: Klucel (hydroxypropylcellulose) (HPC)
[3] = dose: 100.0 mg/kg/injection, schedule: Q04DX003 (ip), vehicle: saline with Tween-80
[4] = dose: 200.0 mg/kg/injection, schedule: Q04DX003 (ip), vehicle: saline with Tween-80
[5] = dose: 400.0 mg/kg/injection, schedule: Q04DX003 (ip), vehicle: saline with Tween-80
[6] = dose: 100.0 mg/kg/injection, schedule: Q01DX001 (ip), vehicle: saline
[7] = dose: 200.0 mg/kg/injection, schedule: Q01DX001 (ip), vehicle: saline
[8] = dose: 400.0 mg/kg/injection, schedule: Q01DX001 (ip), vehicle: saline
[9] = dose: 50.0 mg/kg/injection, schedule: Q01DX001 (ip), vehicle: Klucel (hydroxypropylcellulose) (HPC)
[10] = dose: 100.0 mg/kg/injection, schedule: Q01DX001 (ip), vehicle: Klucel (hydroxypropylcellulose) (HPC)
[11] = dose: 200.0 mg/kg/injection, schedule: Q01DX001 (ip), vehicle: Klucel (hydroxypropylcellulose) (HPC)
[12] = dose: 100.0 mg/kg/injection, schedule: Q04DX003 (ip), vehicle: Klucel (hydroxypropylcellulose) (HPC)
[13] = dose: 200.0 mg/kg/injection, schedule: Q01DX009 (ip), vehicle: Klucel (hydroxypropylcellulose) (HPC)
[14] = dose: 200.0 mg/kg/injection, schedule: Q04DX003 (ip), vehicle: Klucel (hydroxypropylcellulose) (HPC)
[15] = dose: 400.0 mg/kg/injection, schedule: Q01DX009 (ip), vehicle: Klucel (hydroxypropylcellulose) (HPC)
[16] = dose: 400.0 mg/kg/injection, schedule: Q04DX003 (ip), vehicle: Klucel (hydroxypropylcellulose) (HPC)
[17] = dose: 100.0 mg/kg/injection, schedule: Q04DX003 (ip), vehicle: saline
[18] = dose: 200.0 mg/kg/injection, schedule: Q04DX003 (ip), vehicle: saline
[19] = dose: 400.0 mg/kg/injection, schedule: Q04DX003 (ip), vehicle: saline

## CC(CN1CC(=O)NC(=O)C1)N1CC(=O)NC(=O)C1.[Cl][Pt][Cl] (stereo not given)
dose: 12.5 mg/kg/injection, schedule: Q04DX003 (ip), vehicle: water
  T/C: 106 % of control
dose: 25.0 mg/kg/injection, schedule: Q04DX003 (ip), vehicle: water
  T/C: 97 % of control
dose: 50.0 mg/kg/injection, schedule: Q04DX003 (ip), vehicle: water
  T/C: 109 % of control
dose: 100.0 mg/kg/injection, schedule: Q01DX009 (ip), vehicle: water
  T/C: 108 % of control
dose: 100.0 mg/kg/injection, schedule: Q04DX003 (ip), vehicle: water
  T/C: 106 % of control and 107 % of control
dose: 200.0 mg/kg/injection, schedule: Q01DX009 (ip), vehicle: water
  T/C: 121 % of control
dose: 200.0 mg/kg/injection, schedule: Q04DX003 (ip), vehicle: water
  T/C: 101 % of control
dose: 400.0 mg/kg/injection, schedule: Q01DX009 (ip), vehicle: water
  T/C: 160 % of control
dose: 400.0 mg/kg/injection, schedule: Q04DX003 (ip), vehicle: water
  T/C: 118 % of control

## [O-][n+]1onc2ccc(Cl)cc21
dose: 25.0 mg/kg/injection, schedule: Q01DX009 (ip), vehicle: Klucel (hydroxypropylcellulose) (HPC)
  T/C: 101 % of control
dose: 50.0 mg/kg/injection, schedule: Q01DX009 (ip), vehicle: Klucel (hydroxypropylcellulose) (HPC)
  T/C: 98 % of control
[1]
  T/C: 95 % of control

## CC(C)CN1CC(Br)C(=O)NC1=O (stereo not given)
dose: 25.0 mg/kg/injection, schedule: Q01DX Z (ip), vehicle: methylcellulose (MC)
  T/C: 92 % of control
dose: 50.0 mg/kg/injection, schedule: Q01DX Z (ip), vehicle: methylcellulose (MC)
  T/C: 88 % of control

## CCCCc1cc([N+](=O)[O-])cc([N+](=O)[O-])c1OCN1C(=O)C2C3CCC(O3)C2C1=O (stereo not given)
[2]
  T/C: 113 % of control
dose: 200.0 mg/kg/injection, schedule: Q04DX002 (ip), vehicle: Klucel (hydroxypropylcellulose) (HPC)
  T/C: 98 % of control
dose: 400.0 mg/kg/injection, schedule: Q04DX002 (ip), vehicle: Klucel (hydroxypropylcellulose) (HPC)
  T/C: 106 % of control

## COC(=O)C(Br)CCBr (stereo not given)
dose: 100.0 mg/kg/injection, schedule: Q01DX009 (ip), vehicle: saline with Tween-80
  T/C: 94 % of control
[3]
  T/C: 94 % of control
dose: 200.0 mg/kg/injection, schedule: Q01DX009 (ip), vehicle: saline with Tween-80
  T/C: 95 % of control
[4]
  T/C: 101 % of control
dose: 400.0 mg/kg/injection, schedule: Q01DX009 (ip), vehicle: saline with Tween-80
  T/C: 100 % of control
[5]
  T/C: 105 % of control

## O=[N+]([O-])c1ccc2c(c1)/C(=N\O)c1cc(Br)ccc1-2
dose: 100.0 mg/kg/injection, schedule: Q01DX001 (ip), vehicle: carboxymethylcellulose (CMC)
  T/C: 105 % of control
dose: 200.0 mg/kg/injection, schedule: Q01DX001 (ip), vehicle: carboxymethylcellulose (CMC)
  T/C: 105 % of control
dose: 400.0 mg/kg/injection, schedule: Q01DX001 (ip), vehicle: carboxymethylcellulose (CMC)
  T/C: 94 % of control

## COc1ccc(NC(=O)CCCc2ccc(N(CCCl)CCCl)cc2)cc1
dose: 4.0 mg/kg/injection, schedule: Q12HX018 (ip), vehicle: other
  T/C: 106 % of control
dose: 6.0 mg/kg/injection, schedule: Q12HX018 (ip), vehicle: other
  T/C: 121 % of control
dose: 8.0 mg/kg/injection, schedule: Q12HX018 (ip), vehicle: other
  T/C: 110 % of control

## COC1C(O)C(CO)OC1n1cc(F)c(=O)[nH]c1=O (stereo not given)
[6]
  T/C: 107 % of control
[7]
  T/C: 104 % of control
[8]
  T/C: 111 % of control

## NNC(=O)c1ccc(O)cc1
[3]
  T/C: 95 % of control
[4]
  T/C: 101 % of control
[5]
  T/C: 97 % of control

## c1ccc(C2=C(c3ccccc3)CC2)cc1
[9]
  T/C: 104 % of control
[10]
  T/C: 98 % of control
[11]
  T/C: 108 % of control

## Cc1ccc(-n2c(=O)c(N=Nc3ccccc3C)c(O)n(-c3ccccc3Cl)c2=S)cc1
[9]
  T/C: 104 % of control
[10]
  T/C: 94 % of control
[11]
  T/C: 98 % of control

## CCOC(=O)C(NC(C)=O)C(=O)OCC
[1]
  T/C: 103 % of control
[12]
  T/C: 107 % of control
[13]
  T/C: 105 % of control
[14]
  T/C: 107 % of control
[15]
  T/C: 107 % of control
[16]
  T/C: 106 % of control

## CCCCC(=O)c1ccc(C)cc1
[6]
  T/C: 102 % of control
[7]
  T/C: 98 % of control
[8]
  T/C: 96 % of control

## O=[N+]([O-])c1ccccc1S(=O)(=O)/C=C/c1ccccc1
[10]
  T/C: 96 % of control
[1]
  T/C: 93 % of control
[12]
  T/C: 100 % of control
[11]
  T/C: 109 % of control
[13]
  T/C: 100 % of control
[14]
  T/C: 106 % of control
dose: 400.0 mg/kg/injection, schedule: Q01DX001 (ip), vehicle: Klucel (hydroxypropylcellulose) (HPC)
  T/C: 96 % of control
[15]
  T/C: 94 % of control
[16]
  T/C: 101 % of control

## COc1ccc(N2c3ccccc3-c3cc[nH]c(=O)c3[C@H]2O)cc1OC
dose: 12.5 mg/kg/injection, schedule: Q04DX003 (ip), vehicle: saline
  T/C: 93 % of control
dose: 25.0 mg/kg/injection, schedule: Q04DX003 (ip), vehicle: saline
  T/C: 101 % of control
dose: 50.0 mg/kg/injection, schedule: Q04DX003 (ip), vehicle: saline
  T/C: 91 % of control
dose: 75.0 mg/kg/injection, schedule: Q04DX003 (ip), vehicle: saline
  T/C: 99 % of control
dose: 115.0 mg/kg/injection, schedule: Q04DX003 (ip), vehicle: saline
  T/C: 105 % of control
dose: 170.0 mg/kg/injection, schedule: Q04DX003 (ip), vehicle: saline
  T/C: 94 % of control

## CCCCCCCCCCCCCCCCN(C)c1ccc(C=O)cc1
dose: 100.0 mg/kg/injection, schedule: Q01DX009 (ip), vehicle: saline
  T/C: 97 % of control
[17]
  T/C: 104 % of control
dose: 200.0 mg/kg/injection, schedule: Q01DX009 (ip), vehicle: saline
  T/C: 100 % of control
[18]
  T/C: 98 % of control
dose: 400.0 mg/kg/injection, schedule: Q01DX009 (ip), vehicle: saline
  T/C: 103 % of control
[19]
  T/C: 105 % of control

## CN(C)CC1CC(=O)C(CN(C)C)CC1=O (stereo not given)
dose: 5.0 mg/kg/injection, schedule: Q01DX001 (ip), vehicle: saline
  T/C: 92 % of control
dose: 10.0 mg/kg/injection, schedule: Q01DX001 (ip), vehicle: saline
  T/C: 107 % of control
dose: 20.0 mg/kg/injection, schedule: Q01DX001 (ip), vehicle: saline
  T/C: 104 % of control
dose: 40.0 mg/kg/injection, schedule: Q01DX001 (ip), vehicle: saline
  T/C: 103 % of control

## CCSN1C(=O)c2ccccc2C1=O
dose: 25.0 mg/kg/injection, schedule: Q04DX002 (ip), vehicle: Klucel (hydroxypropylcellulose) (HPC)
  T/C: 92 % of control
dose: 50.0 mg/kg/injection, schedule: Q04DX002 (ip), vehicle: Klucel (hydroxypropylcellulose) (HPC)
  T/C: 100 % of control
[2]
  T/C: 92 % of control

## Cc1c(CBr)c2ccccc2[nH]c1=O
dose: 100.0 mg/kg/injection, schedule: Q01DX001 (ip), vehicle: other
  T/C: 97 % of control
dose: 200.0 mg/kg/injection, schedule: Q01DX001 (ip), vehicle: other
  T/C: 108 % of control

## NC(=S)N/N=C\c1nccc2c(N)cccc12
dose: 6.25 mg/kg/injection, schedule: Q01DX009 (ip), vehicle: saline with Tween-80
  T/C: 122 % of control
dose: 50.0 mg/kg/injection, schedule: Q01DX009 (ip), vehicle: saline with Tween-80
  T/C: 187 % of control

## CC(=O)OC1CCC2(C)C(CCC3(C)C2CC=C2C4=C(CCC(C)(C)C4=O)CCC23C)C1(C)C (stereo not given)
[17]
  T/C: 102 % of control
[18]
  T/C: 100 % of control
[19]
  T/C: 92 % of control
